Molecules are shown by their SMILES.

Experiment [1] has as its system methyl group metabolism pathway genes of P. inhibens. Briefly: Lag phase transcriptome (dual RNA-sequencing) of DMSP-treated bacteria. Type of experiment: cell-based, Phaeobacter inhibens. The settings on record: 50 μM DMSP, within the first 15 min and 40 min of the lag phase, vs untreated. Here is the method:
The bacterium P. inhibens DSM 17395 was co-cultivated with the alga Emiliania huxleyi CCMP3266 (purchased from Bigelow Laboratory for Ocean Sciences, East Boothbay, ME) to investigate the metabolic response of the bacterium in the presence of algae, compared to bacteria grown as pure culture with 2 mM glucose. The analysis was conducted using a dual RNA-Sequencing method adapted from Avraham et al. 2016. The adapted method was previously described by Sperfeld et al., 2021. […] The resulting gene expression data, together with data from public databases (BioCyc and KEGG), were used to reconstruct the methyl group metabolism in P. inhibens DSM 17395 (FIG. 1C). The same dual RNA-sequencing method was used to identify genes that are differentially expressed during the lag phase of P. inhibens pure cultures treated with 50 μM DMSP, compared to control cultures without added DMSP (FIGS. 10A, and 11A-11B).
To further elucidate the fate of methyl groups, the inventors analyzed the transcriptome of DMSP-treated P. inhibens bacteria during the lag phase, and compared it to untreated control cultures. […] To further establish that DMSP methyl groups are assimilated via the methionine cycle, the inventors measured the methionine synthesis activity in protein crude extracts of stationary bacterial cells, using a biochemical assay followed by LC/MS analysis. […]

For another experiment, the system named is P. inhibens Δbmt mutant. Briefly: Growth and lag phase shortening in Δbmt mutant. To be noted: 2 μM DMSP, minimal media with or without 200 μM methionine. The format is cell-based, Phaeobacter inhibens. Here is the method: For creation of P. inhibens knockout cells, ˜1,000 bp regions upstream and downstream of the gene of interest were amplified by PCR (Phusion High-Fidelity DNA polymerase, Thermo Scientific), using primers that added homologous regions to gentamycin or kanamycin resistance markers. The fragments were assembled and cloned into the TOPOII vector (Invitrogen) using restriction-free cloning (Peleg Y. & Unger T., 2014), generating a knockout (KO) plasmid. P. inhibens electrocompetent cells (300 μl) were transformed with 10 μg of the constructed KO plasmid by a pulse of 1.8 kV (Bio Rad). Cells were selected on ½YTSS agar plates containing 30 μg/ml gentamycin or 150 μg/ml kanamycin. Successful knockouts in single cell clones were verified by PCR and sanger sequencing.

In experiment [2] the test system is Bacillus subtilis strain 168. Briefly: Lag phase shortening in B. subtilis. The settings on record: 2 μM compound. The format is cell-based. Here is the method:
The bacterial strain Phaeobacter inhibens DSM 17395 was purchased from the German collection of microorganisms and cell cultures (DSMZ, Braunschweig, Germany) and stored at −80° C. with 20% glycerol. Routine cultivation of P. inhibens was conducted at 30° C. in artificial seawater medium (ASW) based on Goyet and Poisson (1989). The ASW medium contained mineral salts (NaCl, 409.41 mM; Na2SO4, 28.22 mM; KCl, 9.08 mM; KBr, 0.82 mM; NaF, 0.07 mM; Na2CO3, 0.20 mM; NaHCO3, 2 mM; MgCl2, 50.66 mM; SrCl2, 0.09 mM), L1 vitamins (thiamine HCl, 100 μg/L; biotin, 0.5 μg/L; vitamin B12, […]), L1 trace elements (Na2EDTA·2H2O, 4.36 mg/L; FeCl3·6H2O, 3.15 mg/L; MnCl2·4H2O, 178.1 μg/L; ZnSO4·7H2O, 23.0 μg/L; CoCl2·6H2O, 11.9 μg/L; CuSO4·5H2O, 2.5 μg/L; Na2MoO4·2H2O, 19.9 μg/L; H2SeO3, 1.29 μg/L; NiSO4·6H2O, 2.63 μg/L; Na3 VO4, 1.84 μg/L; K2CrO4, 1.94 μg/L), and L1 nutrients (NaNO3, 882 μM; NaH2PO4, 36.22 μM). ASW was adjusted to pH 8 using HCl. If not otherwise stated, the medium was further supplemented with a source of carbon (glucose, 1 mM), nitrogen (NH4Cl, 5 mM), and sulfur (Na2SO4, 33 mM), referred to as ASW+CNS. Methylated effector compounds (e.g., donors) were administered at 1 or 2 μM in routine assays, or in higher concentrations as stated. The bacterium Bacillus subtilis strain 168 was cultivated in M9 Medium (Na2HPO4, 6 g/L; KH2PO4, 3 g/L; NaCl, 0.5 g/L; NH4CL, 1 g/L; CaCl2), 100 µM; MgSO4, 1 mM; Thiamine, 5 mg/L; EDTA, 50 mg/L; FcCl3, 4.98 mg/L; ZnCl2, 0.84 mg/L; CuCl2·2H2O, 0.13 mg/L; CoCl2·6H2O, 0.1 mg/L; H3BO3, 0.1 mg/L; MnCl2·4H2O, 0.016 mg/L; pH 7.1) with 20 mM glucose. Other bacterial strains tested for lag phase shortening were isolated from the marine environment (Despotović et al., 2021), and cultivated in ASW+CNS. A 96-well Tecan Infinite M Plex plate reader was used for high-resolution monitoring of bacterial growth dynamics at 30° C. […] The growth of bacteria in co-culture with algae was monitored by counting colony forming units (CFU) on ½ YTSS agar plates. The growth of algae was monitored with a CellStream flow cytometer (Merck, Darmstadt, Germany). […]

Another experiment deals with P. inhibens. Briefly: Imaging flow cytometry of bacterial populations during the lag phase. Type of experiment: cell-based, Phaeobacter inhibens. To be noted: DMSP-treated cultures. Here is the method:
The bacterial strain Phaeobacter inhibens DSM 17395 was purchased from the German collection of microorganisms and cell cultures (DSMZ, Braunschweig, Germany) and stored at −80° C. with 20% glycerol. Routine cultivation of P. inhibens was conducted at 30° C. in artificial seawater medium (ASW) based on Goyet and Poisson (1989). […] A 96-well Tecan Infinite M Plex plate reader was used for high-resolution monitoring of bacterial growth dynamics at 30° C. […] The growth of bacteria in co-culture with algae was monitored by counting colony forming units (CFU) on ½ YTSS agar plates. The growth of algae was monitored with a CellStream flow cytometer (Merck, Darmstadt, Germany).
To reflect the natural low bacterial abundance in the oligotrophic ocean with low microalgal productivity, the current bacterial growth experiments were routinely initiated with an optical density (OD) of 0.00001. […] To determine the actual length of the lag phase, the inventors analyzed bacterial cultures using imagining flow cytometry. […]

Experiment [3] deals with marine bacterium Vibrio sp. Briefly: Lag phase shortening in Vibrio sp. To be noted: 2 μM compound. Type of experiment: cell-based. How it is done:
(§1) The bacterial strain Phaeobacter inhibens DSM 17395 was purchased from the German collection of microorganisms and cell cultures (DSMZ, Braunschweig, Germany) and stored at −80° C. with 20% glycerol. Routine cultivation of P. inhibens was conducted at 30° C. in artificial seawater medium (ASW) based on Goyet and Poisson (1989). The ASW medium contained mineral salts (NaCl, 409.41 mM; Na2SO4, 28.22 mM; KCl, 9.08 mM; KBr, 0.82 mM; NaF, 0.07 mM; Na2CO3, 0.20 mM; NaHCO3, 2 mM; MgCl2, 50.66 mM; SrCl2, 0.09 mM), L1 vitamins (thiamine HCl, 100 μg/L; biotin, 0.5 μg/L; vitamin B12, […]), L1 trace elements (Na2EDTA·2H2O, 4.36 mg/L; FeCl3·6H2O, 3.15 mg/L; MnCl2·4H2O, 178.1 μg/L; ZnSO4·7H2O, 23.0 μg/L; CoCl2·6H2O, 11.9 μg/L; CuSO4·5H2O, 2.5 μg/L; Na2MoO4·2H2O, 19.9 μg/L; H2SeO3, 1.29 μg/L; NiSO4·6H2O, 2.63 μg/L; Na3 VO4, 1.84 μg/L; K2CrO4, 1.94 μg/L), and L1 nutrients (NaNO3, 882 μM; NaH2PO4, 36.22 μM). ASW was adjusted to pH 8 using HCl. […] A 96-well Tecan Infinite M Plex plate reader was used for high-resolution monitoring of bacterial growth dynamics at 30° C. […] The growth of bacteria in co-culture with algae was monitored by counting colony forming units (CFU) on ½ YTSS agar plates. The growth of algae was monitored with a CellStream flow cytometer (Merck, Darmstadt, Germany). […]

The next experiment deals with Various marine bacteria. The experiment can be described thus: Lag phase shortening in various marine bacteria. The format is cell-based. The settings on record: minute amounts of compound. How it is done:
as §1

As for `C[S+](C)CCC(=O)[O-]` [DMSP, dimethylsulfoniopropionate], the “expression of the methyl group metabolism pathway” value in experiment [1] is listed as “upregulated”. The lag phase shortening entry in the experiment on P. inhibens Δbmt mutant is given as “did not induce lag phase shortening”; in experiment [2], “induction of the lag phase shortening”; in experiment [3], “induction of the lag phase shortening”; in the experiment on Various marine bacteria, “marked lag phase shortening”. Further, in the experiment with P. inhibens, the “time at which transition from aggregates to single-celled bacteria is concluded” value is recorded as 3 h.

(Values after patent publication US20260015574A1, “METHODS FOR SHORTENING LAG PHASE DURATION IN MICROORGANISMS” (YEDA RESEARCH AND DEVELOPMENT CO. LTD., priority 2022, published 2026).)
